In PubChem BioAssay (NCI):
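Method: 48-hour compound exposure of cells in 96-well plates, five concentrations, linear interpolation of endpoints. At the TGI there is no net growth.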 *1 amine or outer side, *2 acyl side, *3 side chain or, on linkers, in order; H or OH if unused. Where a SMILES comes first, the peptide text is derived from it. Bridges are numbered along the chain shown (N, C = ends). [ ]: non-standard residue; d: D form. X35 = CC[C@H](C)[C@@H](N[*:1])[C@@H](O)CC(=O)O[C@H](C(=O)[C@H](C)C(=O)[*:2])C(C)C; NMeY = CN[C@@H](Cc1ccc(O)cc1)C(=O)O

Experiments:
Assay in all cases: inhibition of tumour cell growth, NCI panel, 48 h
[1] = system: RXF 393 renal
[2] = system: A549 NSCLC
[3] = system: SF-539 CNS
[4] = system: NCI-H23 lung
[5] = system: IGROV1 ovarian
[6] = system: HCT-15 colon
[7] = system: MDA-MB-435
[8] = system: MCF7 breast
[9] = system: SF-268 CNS
[10] = system: A498 renal
[11] = system: HS 578T breast
[12] = system: MOLT-4 leukemia
[13] = system: UACC-62 melanoma
[14] = system: MALME-3M melanoma
[15] = system: KM12 colon
[16] = system: HOP-92 NSCLC

Structure (SMILES)	TGI [1]	TGI [2]	TGI [3]	TGI [4]	TGI [5]	TGI [6]	TGI [7]	TGI [8]	TGI [9]	TGI [10]	TGI [11]	TGI [12]	TGI [13]	TGI [14]	TGI [15]	TGI [16]
CCOC(=O)c1ncn(CCc2ccc(Cl)cc2)c1C	> 100 µM	> 100 µM	> 100 µM	> 100 µM	> 100 µM	> 100 µM	> 100 µM	> 100 µM	> 100 µM	> 100 µM	> 100 µM	> 100 µM	> 100 µM	> 100 µM	> 100 µM	> 100 µM
c1ccc2sc(SSSc3nc4ccccc4s3)nc2c1	> 100 µM	> 100 µM		> 100 µM	> 100 µM	> 100 µM	> 100 µM	> 100 µM	> 100 µM	> 100 µM	> 100 µM	> 100 µM	> 100 µM	> 100 µM	> 100 µM	> 100 µM
Cn1nnc2c(C(N)=S)ncn2c1=O	> 100 µM	> 100 µM	> 100 µM	> 100 µM	> 100 µM	> 100 µM	> 100 µM	> 100 µM	> 100 µM	> 100 µM	> 100 µM	> 100 µM	> 100 µM	> 100 µM	> 100 µM	> 100 µM
NS(=O)(=O)c1nnc(NS(=O)(=O)c2ccccc2[N+](=O)[O-])s1	> 100 µM	> 100 µM	> 100 µM	> 100 µM	> 100 µM	> 100 µM	> 100 µM	> 100 µM	> 100 µM	> 100 µM	> 100 µM	> 100 µM	> 100 µM	> 100 µM	> 100 µM	> 100 µM
C=C1c2nc3ccccc3n2C=C(c2ccccc2)N1c1ccc(Cl)cc1	> 67.6 µM	> 100 µM	20.9 µM	79.7 µM	> 89.5 µM	> 90.1 µM	> 100 µM	> 100 µM	> 100 µM	> 77 µM	> 59.1 µM	> 100 µM	> 100 µM	51.2 µM	66.3 µM	61.2 µM
CC(C)(C)OC(=O)N(O)[C@@H]1CC[C@H](n2cnc3c(N)ncnc32)C1	> 100 µM	> 100 µM	> 100 µM	> 100 µM	> 100 µM	> 100 µM	> 100 µM	> 100 µM	> 100 µM	> 100 µM	> 100 µM	> 100 µM	> 100 µM	> 100 µM	> 100 µM	> 100 µM
CCCCN=NNc1cn(C2OC(CO)C(O)C2O)c(=O)[nH]c1=O (stereo not drawn)	> 100 µM	> 100 µM	> 100 µM	> 100 µM	> 100 µM	> 100 µM	> 100 µM	> 100 µM	> 100 µM	> 100 µM	> 100 µM	> 100 µM	> 100 µM	> 100 µM	> 100 µM	
O=C1C=C(c2ccccc2)OC1C1Sc2ccccc2NC1=O (stereo not drawn)	> 94.4 µM	> 44.7 µM	> 100 µM	> 31.5 µM	> 100 µM	> 100 µM	> 100 µM	> 23.6 µM	> 100 µM	> 31.5 µM	> 100 µM	> 40.1 µM	> 49.3 µM	> 100 µM	> 100 µM	> 87 µM
N=c1oc2ccccc2cc1C(=O)Nc1cccc2ccccc12	> 100 µM	> 100 µM	> 100 µM	> 100 µM	> 100 µM	> 100 µM	> 100 µM	> 100 µM	> 100 µM	> 100 µM	> 100 µM	> 100 µM	> 100 µM	> 100 µM	> 100 µM	> 100 µM
O=Cc1ccc2ccocc1-2	> 100 µM	> 100 µM	> 100 µM	> 100 µM	> 100 µM	> 100 µM	> 100 µM	> 100 µM	> 100 µM	> 100 µM	> 100 µM	> 100 µM	> 100 µM		> 100 µM	> 100 µM
C/C(=N\NC(=O)c1ccncc1)c1sc(-n2nc(-c3ccccc3)cc2-c2ccccc2)nc1C	> 31.6 µM	> 31.6 µM	> 31.6 µM	> 31.6 µM	> 100 µM	> 31.6 µM	> 31.6 µM	> 31.6 µM	> 100 µM	> 100 µM	> 100 µM	> 31.6 µM	> 31.6 µM	> 100 µM	> 100 µM	> 31.6 µM
CC[C@H](C)[C@H]1NC(=O)[C@@H](N)[C@@H](C)OC(=O)[C@H](Cc2ccc(OC)cc2)N(C)C(=O)[C@@H]2CCCN2C(=O)[C@H](CC(C)C)NC(=O)[C@@H](C)C(=O)[C@H](C(C)C)OC(=O)C[C@@H]1O (H-T[X35]LP[NMeY](Me); ester 1-C)	> 100 µM	> 100 µM	66.2 µM	> 100 µM	> 100 µM	> 100 µM	56.1 µM	> 100 µM	> 100 µM		> 100 µM	> 100 µM	92.3 µM	> 100 µM	68.1 µM	
C=C(C)C1CC[C@@](C)(O)[C@H](C#N)C1 (stereo partly drawn)	> 100 µM	> 100 µM	> 100 µM	> 100 µM		> 100 µM	> 100 µM	> 100 µM	> 100 µM	> 100 µM	> 100 µM	> 100 µM	> 100 µM	> 100 µM	> 100 µM	
CCOC(=O)CN1C(=O)NC(C)(c2ccccc2)C1=O (stereo not drawn)	> 100 µM	> 100 µM	> 100 µM	> 100 µM	> 100 µM	> 100 µM	> 100 µM	> 100 µM	> 100 µM	> 100 µM	> 100 µM	> 100 µM	> 100 µM		> 100 µM	> 100 µM
C/C=C/c1cc2c(cc1O)CC[C@@H]1[C@@H]2CC[C@]2(C)[C@@H](O)CC[C@@H]12	1.3 µM	15.9 µM	0.15 µM	4.62 µM	19 µM	18 µM	0.0948 µM	1.28 µM	21.5 µM	6.11 µM	22.3 µM	15.8 µM	15.4 µM	23.1 µM	13.4 µM	
C[C@@H]1S[C@H](c2c(F)cccc2Cl)n2c1nc1ccccc12	28.8 µM	61.3 µM	28.9 µM	28 µM	59.5 µM	19.3 µM	25.1 µM	81.8 µM	36.3 µM		41.6 µM	32 µM	29.7 µM	30.6 µM	20.5 µM	
C=C(Cl)/C(=C\Cl)CCC(Cl)C(C)C (stereo not drawn) (tested in a mixture with another compound)	23.6 µM	> 100 µM	32.2 µM	28.2 µM	28.4 µM		28.8 µM	26.9 µM	37.1 µM	34.6 µM	31.9 µM	> 100 µM	25.3 µM	29.2 µM	27.6 µM	28.6 µM
O=c1[nH]c2c(c(=O)[nH]1)SC(c1ccccc1)C2 (stereo not drawn)	> 100 µM	> 100 µM	> 100 µM	> 100 µM	> 100 µM	> 100 µM	> 100 µM	> 100 µM	> 100 µM	> 100 µM	> 100 µM	> 100 µM		> 100 µM	> 100 µM	> 100 µM
COc1cc(S(=O)(=O)Nc2ccc(-c3csc(N4C(=O)C(C)SC4c4cccs4)n3)cc2)ccc1Cl (stereo not drawn)	31.1 µM		> 100 µM	> 100 µM	> 100 µM	> 100 µM	> 100 µM	> 100 µM	> 100 µM	> 100 µM	> 100 µM	> 100 µM	> 100 µM	> 100 µM	23 µM	> 100 µM
CN1CCN(c2cc3nc(-c4ccc(Cl)cc4)[nH]c3cc2F)CC1	30.9 µM	> 59 µM		34.2 µM	36.1 µM	17.9 µM	32.1 µM	> 45.2 µM	51.3 µM	47.4 µM	42.6 µM	41.1 µM	18.9 µM	23.4 µM	> 45.2 µM	> 70.4 µM
CC1=NN(c2ccc(S(=O)(=O)O)cc2)C2(C1)C(Cl)C(=O)N2c1nc2ccccc2s1 (stereo not drawn)	> 100 µM	> 100 µM		> 100 µM	> 100 µM	> 100 µM	> 100 µM	> 100 µM	> 100 µM	> 100 µM	> 100 µM	> 100 µM	> 100 µM	> 100 µM	> 100 µM	> 100 µM
COC(=O)[C@@H]1C[C@@H](O)CN1C(=O)c1ccc([N+](=O)[O-])cc1[N+](=O)[O-]	> 100 µM	> 100 µM	> 100 µM	> 100 µM	> 100 µM	> 100 µM	> 100 µM	> 100 µM	> 100 µM	> 100 µM	> 100 µM	> 100 µM	> 100 µM		> 100 µM	> 100 µM
Cc1c(C(=O)c2ccccc2)[n+](=O)c2cc(Cl)c(Cl)cc2n1[O-]	19.2 µM	27.5 µM	32.5 µM	11.6 µM	5.16 µM	4.56 µM	24.5 µM	26.6 µM	29.5 µM	33.8 µM	31.2 µM	12.2 µM	25.1 µM		23 µM	15.2 µM
O=C1CSC(c2ccccc2O)N1c1ccc2c(c1)Oc1c(Cl)c3c(c(Cl)c1=N2)Oc1cc(N2C(=O)CSC2c2ccccc2O)ccc1N=3 (stereo not drawn)	44.5 µM		> 100 µM	> 100 µM	> 100 µM	> 100 µM	> 100 µM	> 100 µM	> 100 µM	> 100 µM	> 100 µM	46.4 µM			> 100 µM	39.9 µM
O=c1[nH]c(=O)c2c([nH]1)[nH]c1ccc(Br)cc12	> 100 µM	> 100 µM	> 100 µM	> 100 µM	> 100 µM	> 100 µM	> 100 µM	> 100 µM	> 100 µM	> 100 µM	> 100 µM		> 100 µM	> 100 µM	79.3 µM	> 100 µM
CC(Br)CN1CCOCC1 (stereo not drawn)	> 100 µM	> 100 µM	> 100 µM	> 100 µM	> 100 µM	> 100 µM	> 100 µM	> 100 µM	> 100 µM	> 100 µM	> 100 µM		> 100 µM	> 100 µM	> 100 µM	> 100 µM
O=C1Nc2ccc(Br)cc2/C1=N/S(=O)(=O)O	> 100 µM	78.9 µM		> 100 µM	> 100 µM	> 100 µM	22.7 µM	40 µM	> 100 µM	> 100 µM	> 100 µM	63.4 µM	40.3 µM	71.4 µM	> 100 µM	> 100 µM
Cn1c(=O)c2ccccc2[n+]2c(-c3cccc([N+](=O)[O-])c3)csc12	> 100 µM	> 100 µM	> 100 µM	> 100 µM	> 100 µM		> 100 µM	> 100 µM	> 100 µM	> 100 µM	83.3 µM	> 100 µM	> 100 µM	> 100 µM	> 100 µM	> 100 µM
CC(O)CNC(=O)Nc1c(C(F)(F)F)cc(-c2ccccc2)[nH]c1=O (stereo not drawn)	> 100 µM	> 100 µM		> 100 µM	> 100 µM	> 100 µM	> 100 µM	> 100 µM	> 100 µM	> 100 µM	> 100 µM	> 100 µM	> 100 µM	> 100 µM	> 100 µM	> 100 µM
C=C1N(S(=O)(=O)c2ccc(C)cc2)C(=O)OCC12CCCC2	> 100 µM	> 100 µM	> 100 µM	> 100 µM	> 100 µM	> 100 µM	> 100 µM	> 100 µM		> 100 µM	> 100 µM	> 100 µM	> 100 µM	> 100 µM	> 100 µM	> 100 µM
